3 molecules from patent US12274688B2, “Drug-loaded mesoporous silica nanoparticle for prevention and treatment of brain cancers or brain metastases” (NANO TARGETING & THERAPY BIOPHARMA INC, priority 2022, dated 2025) can be followed below.

In series [1] the test system is TMZ-resistant glioma cells (U87MG-R). The series is described as follows: Orthotopic TMZ-resistant brain tumor mouse model (survival, tumor size).
Method: TMZ-resistant glioma cells (U87MG-R) were cultured at 37° C. in a humidified 5% CO2 atmosphere in Dulbecco's Modified Eagle Medium (DMEM) supplemented with 10% fetal bovine serum and 100 ug/mL penicillin/streptomycin. NOD-SCID male mice (8-week-old) were purchased from BioLASCO Taiwan Co. Ltd. For intracranial transplantation, an experimental procedure was performed under sterile conditions. For TMZ-resistant glioblastoma transplantation, a skull burr hole was created in the right frontal brain area. Cells (2×10^5, or five microliters of TMZ-resistant glioma cell suspension (U87MG-R, 6×10^5 cells/5 μL) were injected into the cortex at a depth of 3 mm using stereotactic guidance and a microprocessor single syringe (Harvard Apparatus, Holliston, MA, USA).
(§1) The administration frequency was twice per week until the end of the study. DTX, CTX and PBS were intravenously (IV) injected and TMZ was intraperitoneally (IP) injected into mice. To assess overall survival, mice were monitored up to the point of spontaneous death or approaching moribund status.
Body weight and survival time of animals were monitored up to the point of spontaneous death.
Series [2] in a line: Toxicity/tolerability in mice transplanted with TMZ-resistant brain tumors. Conditions: for Survival of mice to the end of the testing period: 10 or 20 mg/kg IV with TMZ 10 mg/kg, testing period (15)/19 days; for Toxicity (body weight decrease, low survival rate): dose of 10 mg/kg or above IV, with TMZ 10 mg/kg IP.
From the text: (§2) To evaluate the toxicity of DTX and CTX and the efficacy of direct administration of DTX and CTX on treating TMZ resistant brain tumors, 36 mice transplanted with TMZ-resistant brain tumors were used in the experiments, divided into six groups, each group having six mice; details of dosage are noted in Table 7 below:
as §1
For series [3] the following is noted: mouse, in vivo, iv.
From the text: as §2, §1
Setting [4] is: 10 mg/kg IV + TMZ 10 mg/kg IP, twice per week.
[5] abbreviates: 20 mg/kg IV + TMZ 10 mg/kg IP, twice per week.
The mark [6] stands for this setting: PBS IV + TMZ 10 mg/kg IP, twice per week.

For the molecule `CO[C@H]1C(=O)[C@]2(C)[C@@H](OC)C[C@H]3OC[C@@]3(OC(C)=O)[C@H]2[C@H](OC(=O)c2ccccc2)[C@]2(O)C[C@H](OC(=O)[C@H](O)[C@@H](NC(=O)OC(C)(C)C)c3ccccc3)C(C)=C1C2(C)C` [CTX, cabazitaxel], in series [1] (setting [4]), the “Median Survival Time (days after 1st injection)” value was determined as 11 days and the “Median Survival Time (days after implantation of tumor cells)” value is given as 15 days. In series [1] (setting [5]), the “Median Survival Time (days after 1st injection)” value is listed as 8 days and the “Median Survival Time (days after implantation of tumor cells)” value turned out to be 12 days. In series [2], the “Survival of mice to the end of the testing period” value is on record as “all mice died before the end of the testing period” and the “Toxicity (body weight decrease, low survival rate)” value is reported as “high toxicity”. Further, in series [2] (dose of 5 mg/kg or higher), the “Toxicity of direct administration” value was “high toxicity”.

For `CC(=O)O[C@@]12CO[C@@H]1C[C@H](O)[C@@]1(C)C(=O)[C@H](O)C3=C(C)[C@@H](OC(=O)[C@H](O)[C@@H](NC(=O)OC(C)(C)C)c4ccccc4)C[C@@](O)([C@@H](OC(=O)c4ccccc4)[C@H]21)C3(C)C` [DTX, docetaxel], the Signs of toxicity result in series [3] was “immobility, interaction deficits, and more body weight loss”. Also, in series [1] (setting [4]), the “Median Survival Time (days after 1st injection)” value is 15 days and the “Median Survival Time (days after implantation of tumor cells)” value worked out at 19 days. Also, in series [1] (setting [5]), the “Median Survival Time (days after 1st injection)” value is 11 days and the “Median Survival Time (days after implantation of tumor cells)” value is recorded as 15 days. In series [2], the “Survival of mice to the end of the testing period” value is “all mice died before the end of the testing period” and the “Toxicity (body weight decrease, low survival rate)” value is “high toxicity”.

Regarding `Cn1nnc2c(C(N)=O)ncn2c1=O` [TMZ, temozolomide], in series [1] (setting [6]), the “Median Survival Time (days after 1st injection)” value is 23 days. Moreover, the results for the “Median Survival Time (days after implantation of tumor cells)” value in series [1] (setting [6]), in series [1] (Table 9: PBS + TMZ (10 mg/kg)) and in series [1] (Table 10: PBS + TMZ (10 mg/kg)) were 27 days, 27 [26.5] days and 27 [26.5] days, respectively.
